Measured values taken from patent US6645918B1, “N-([1,2,4]triazoloazinyl)thiophenesulfonamide compounds and their use as herbicides” (Dow AgroSciences LLC, priority 2000, dated 2003).

What was measured:
Assay type in all cases: in vivo
[1] = system: chickweed (Stellaria media); experiment: Postemergence herbicidal activity, chickweed; details: foliar spray, visual after 2 weeks, 0 no injury, 100 complete kill
In short: (§1)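 Greenhouse-grown plants at first or second true leaf stage were sprayed with compound in aqueous acetone/DMSO/isopropanol carrier containing crop oil concentrate and Triton X-155; 1 ppm corresponds to about 1 g/ha. Plants were sub-irrigated, and visual injury versus untreated plants was scored 0–100% after 2 weeks.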

[2] = system: cocklebur (Xanthium strumarium); experiment: Postemergence herbicidal activity, cocklebur; details: foliar spray, visual after 2 weeks, 0 no injury, 100 complete kill
In short: as §1

[3] = system: lambsquarters (Chenopodium album); experiment: Postemergence herbicidal activity, lambsquarters; details: foliar spray, visual after 2 weeks, 0 no injury, 100 complete kill
In short: as §1

[4] = system: morningglory (Ipomoea hederacea); experiment: Postemergence herbicidal activity, morningglory; details: foliar spray, visual after 2 weeks, 0 no injury, 100 complete kill
In short: as §1

[5] = system: pigweed (Amaranthus retroflexus); experiment: Postemergence herbicidal activity, pigweed; details: foliar spray, visual after 2 weeks, 0 no injury, 100 complete kill
In short: as §1

[6] = system: velvetleaf (Abutilion theophrasti); experiment: Postemergence herbicidal activity, velvetleaf; details: foliar spray, visual after 2 weeks, 0 no injury, 100 complete kill
In short: as §1

[7] = system: viola (Viola tricolor); experiment: Postemergence herbicidal activity, viola; details: foliar spray, visual after 2 weeks, 0 no injury, 100 complete kill
In short: as §1

[8] = system: wild buckwheat (Polygonum convolvulus); experiment: Postemergence herbicidal activity, wild buckwheat; details: foliar spray, visual after 2 weeks, 0 no injury, 100 complete kill
In short: as §1

[9] = system: blackgrass (Alopecurus myosuroides); experiment: Postemergence herbicidal activity, blackgrass; details: foliar spray, visual after 2 weeks, 0 no injury, 100 complete kill
In short: as §1

[10] = system: giant foxtail (Setaria faberi); experiment: Postemergence herbicidal activity, giant foxtail; details: foliar spray, visual after 2 weeks, 0 no injury, 100 complete kill
In short: as §1

[11] = system: Rox orange sorghum (Sorghum bicolor); experiment: Postemergence herbicidal activity, Rox orange sorghum; details: foliar spray, visual after 2 weeks, 0 no injury, 100 complete kill
In short: as §1

[12] = system: wild oats (Avena fatua); experiment: Postemergence herbicidal activity, wild oats; details: foliar spray, visual after 2 weeks, 0 no injury, 100 complete kill
In short: as §1

[13] = system: cocklebur (Xanthium strumarium); experiment: Preemergence herbicidal activity, cocklebur; details: soil spray, visual after 3 weeks, 0 no injury, 100 complete kill or no germination
In short: (§2)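 Compounds in acetone/DMSO (97:3) were diluted into water with 0.1% Tween 155 and sprayed onto the soil of freshly seeded pots, with a top rate of 4.48 kg/ha. Pots were kept in a greenhouse (~15 h light, 23-29 °C day, 22-28 °C night) for 3 weeks, then injury was rated visually against untreated pots (0-100%).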

[14] = system: lambsquarters (Chenopodium album); experiment: Preemergence herbicidal activity, lambsquarters; details: soil spray, visual after 3 weeks, 0 no injury, 100 complete kill or no germination
In short: as §2

[15] = system: morningglory (Ipomoea hederacea); experiment: Preemergence herbicidal activity, morningglory; details: soil spray, visual after 3 weeks, 0 no injury, 100 complete kill or no germination
In short: as §2

[16] = system: pigweed (Amaranthus retroflexus); experiment: Preemergence herbicidal activity, pigweed; details: soil spray, visual after 3 weeks, 0 no injury, 100 complete kill or no germination
In short: as §2

[17] = system: velvetleaf (Abutilion theophrasti); experiment: Preemergence herbicidal activity, velvetleaf; details: soil spray, visual after 3 weeks, 0 no injury, 100 complete kill or no germination
In short: as §2

[18] = system: wild poinsettia (Euphorbia heterophylla); experiment: Preemergence herbicidal activity, wild poinsettia; details: soil spray, visual after 3 weeks, 0 no injury, 100 complete kill or no germination
In short: as §2

[19] = system: blackgrass (Alopecurus myosuroides); experiment: Preemergence herbicidal activity, blackgrass; details: soil spray, visual after 3 weeks, 0 no injury, 100 complete kill or no germination
In short: as §2

[20] = system: barnyardgrass (Echinochloa crus-galli); experiment: Preemergence herbicidal activity, barnyardgrass; details: soil spray, visual after 3 weeks, 0 no injury, 100 complete kill or no germination
In short: as §2

[21] = system: crabgrass (Digitaria sanguinalis); experiment: Preemergence herbicidal activity, crabgrass; details: soil spray, visual after 3 weeks, 0 no injury, 100 complete kill or no germination
In short: as §2

[22] = system: giant foxtail (Setaria faberi); experiment: Preemergence herbicidal activity, giant foxtail; details: soil spray, visual after 3 weeks, 0 no injury, 100 complete kill or no germination
In short: as §2

[23] = system: Rox orange sorghum (Sorghum bicolor); experiment: Preemergence herbicidal activity, Rox orange sorghum; details: soil spray, visual after 3 weeks, 0 no injury, 100 complete kill or no germination
In short: as §2

[24] = system: wild oats (Avena fatua); experiment: Preemergence herbicidal activity, wild oats; details: soil spray, visual after 3 weeks, 0 no injury, 100 complete kill or no germination
In short: as §2

SMILES: COc1csc(Cl)c1S(=O)(=O)Nc1nc2c(C)cnc(OC)n2n1 [Compound 21]
- STEME postemergence injury score 0-100 ([1]; 62.5 ppm): 100%
- XANST postemergence injury score 0-100 ([2]; 62.5 ppm): 90%
- CHEAL postemergence injury score 0-100 ([3]; 62.5 ppm): 100%
- IPOHE postemergence injury score 0-100 ([4]; 62.5 ppm): 80%
- AMARE postemergence injury score 0-100 ([5]; 62.5 ppm): 100%
- ABUTH postemergence injury score 0-100 ([6]; 62.5 ppm): 100%
- VIOTR postemergence injury score 0-100 ([7]; 62.5 ppm): 90%
- POLCO postemergence injury score 0-100 ([8]; 62.5 ppm): 100%
- ALOMY postemergence injury score 0-100 ([9]; 62.5 ppm): 30%
- SETFA postemergence injury score 0-100 ([10]; 62.5 ppm): 50%
- SORBI postemergence injury score 0-100 ([11]; 62.5 ppm): 100%
- AVEFA postemergence injury score 0-100 ([12]; 62.5 ppm): 75%
- XANST preemergence injury score 0-100 ([13]; 8.8 g/Ha): 50%
- CHEAL preemergence injury score 0-100 ([14]; 8.8 g/Ha): 70%
- IPOHE preemergence injury score 0-100 ([15]; 8.8 g/Ha): 40%
- AMARE preemergence injury score 0-100 ([16]; 8.8 g/Ha): 60%
- ABUTH preemergence injury score 0-100 ([17]; 8.8 g/Ha): 80%
- EPHHL preemergence injury score 0-100 ([18]; 8.8 g/Ha): 60%
- ALOMY preemergence injury score 0-100 ([19]; 8.8 g/Ha): 70%
- ECHCG preemergence injury score 0-100 ([20]; 8.8 g/Ha): 30%
- DIGSA preemergence injury score 0-100 ([21]; 8.8 g/Ha): 40%
- SETFA preemergence injury score 0-100 ([22]; 8.8 g/Ha): 70%
- SORBI preemergence injury score 0-100 ([23]; 8.8 g/Ha): 70%
- AVEFA preemergence injury score 0-100 ([24]; 8.8 g/Ha): 70%

SMILES: COc1csc(C)c1S(=O)(=O)Nc1nc2c(Cl)cnc(OC)n2n1 [Compound 22]
- STEME postemergence injury score 0-100 ([1]; 31.3 ppm): 80%
- XANST postemergence injury score 0-100 ([2]; 31.3 ppm): 90%
- CHEAL postemergence injury score 0-100 ([3]; 31.3 ppm): 90%
- IPOHE postemergence injury score 0-100 ([4]; 31.3 ppm): 90%
- AMARE postemergence injury score 0-100 ([5]; 31.3 ppm): 100%
- ABUTH postemergence injury score 0-100 ([6]; 31.3 ppm): 70%
- VIOTR postemergence injury score 0-100 ([7]; 31.3 ppm): 80%
- POLCO postemergence injury score 0-100 ([8]; 31.3 ppm): 90%
- ALOMY postemergence injury score 0-100 ([9]; 31.3 ppm): 60%
- SETFA postemergence injury score 0-100 ([10]; 31.3 ppm): 80%
- SORBI postemergence injury score 0-100 ([11]; 31.3 ppm): 95%
- AVEFA postemergence injury score 0-100 ([12]; 31.3 ppm): 50%
- XANST preemergence injury score 0-100 ([13]; 35 g/Ha): 80%
- CHEAL preemergence injury score 0-100 ([14]; 35 g/Ha): 98%
- IPOHE preemergence injury score 0-100 ([15]; 35 g/Ha): 98%
- AMARE preemergence injury score 0-100 ([16]; 35 g/Ha): 100%
- ABUTH preemergence injury score 0-100 ([17]; 35 g/Ha): 100%
- EPHHL preemergence injury score 0-100 ([18]; 35 g/Ha): 80%
- ALOMY preemergence injury score 0-100 ([19]; 35 g/Ha): 70%
- ECHCG preemergence injury score 0-100 ([20]; 35 g/Ha): 100%
- DIGSA preemergence injury score 0-100 ([21]; 35 g/Ha): 98%
- SETFA preemergence injury score 0-100 ([22]; 35 g/Ha): 100%
- SORBI preemergence injury score 0-100 ([23]; 35 g/Ha): 100%
- AVEFA preemergence injury score 0-100 ([24]; 35 g/Ha): 70%

SMILES: COc1csc(C)c1S(=O)(=O)Nc1nc2c(OC)cnc(OC)n2n1 [Compound 23]
- STEME postemergence injury score 0-100 ([1]; 15.6 ppm): 80%
- XANST postemergence injury score 0-100 ([2]; 15.6 ppm): 90%
- CHEAL postemergence injury score 0-100 ([3]; 15.6 ppm): 80%
- IPOHE postemergence injury score 0-100 ([4]; 15.6 ppm): 40%
- AMARE postemergence injury score 0-100 ([5]; 15.6 ppm): 90%
- ABUTH postemergence injury score 0-100 ([6]; 15.6 ppm): 90%
- VIOTR postemergence injury score 0-100 ([7]; 15.6 ppm): 70%
- POLCO postemergence injury score 0-100 ([8]; 15.6 ppm): 75%
- ALOMY postemergence injury score 0-100 ([9]; 15.6 ppm): 70%
- SETFA postemergence injury score 0-100 ([10]; 15.6 ppm): 90%
- SORBI postemergence injury score 0-100 ([11]; 15.6 ppm): 90%
- AVEFA postemergence injury score 0-100 ([12]; 15.6 ppm): 70%
- XANST preemergence injury score 0-100 ([13]; 4.4 g/Ha): 70%
- CHEAL preemergence injury score 0-100 ([14]; 4.4 g/Ha): 90%
- IPOHE preemergence injury score 0-100 ([15]; 4.4 g/Ha): 80%
- AMARE preemergence injury score 0-100 ([16]; 4.4 g/Ha): 100%
- ABUTH preemergence injury score 0-100 ([17]; 4.4 g/Ha): 90%
- EPHHL preemergence injury score 0-100 ([18]; 4.4 g/Ha): 90%
- ALOMY preemergence injury score 0-100 ([19]; 4.4 g/Ha): 98%
- ECHCG preemergence injury score 0-100 ([20]; 4.4 g/Ha): 80%
- DIGSA preemergence injury score 0-100 ([21]; 4.4 g/Ha): 100%
- SETFA preemergence injury score 0-100 ([22]; 4.4 g/Ha): 98%
- SORBI preemergence injury score 0-100 ([23]; 4.4 g/Ha): 100%
- AVEFA preemergence injury score 0-100 ([24]; 4.4 g/Ha): 90%
